# Measurements as given in patent US20230150981A1, “N-HETEROARYLALKYL-2-(HETEROCYCLYL AND HETEROCYCLYLMETHYL) ACETAMIDE DERIVATIVES AS SSTR4 AGONISTS” (Takeda Pharmaceutical Compnay Limited, priority 2020, published 2023).
# Assays:
# [1] = target: T1, SSTR1 (Homo sapiens, UniProt P30872); assay: SSTR1 I-125 somatostatin competition binding assay for selectivity versus SSTR1 (CHO-K1 membranes); conditions: competition with I-125 somatostatin, membranes from CHO-K1 overexpressing SSTR1; read-out: SSTR1 Binding pIC50 (converted)
# T1 construct: purchased Perkin Elmer ES-520-M400UA; host or cells: CHO-K1 membranes
# T1 sequence (P30872 whole entry): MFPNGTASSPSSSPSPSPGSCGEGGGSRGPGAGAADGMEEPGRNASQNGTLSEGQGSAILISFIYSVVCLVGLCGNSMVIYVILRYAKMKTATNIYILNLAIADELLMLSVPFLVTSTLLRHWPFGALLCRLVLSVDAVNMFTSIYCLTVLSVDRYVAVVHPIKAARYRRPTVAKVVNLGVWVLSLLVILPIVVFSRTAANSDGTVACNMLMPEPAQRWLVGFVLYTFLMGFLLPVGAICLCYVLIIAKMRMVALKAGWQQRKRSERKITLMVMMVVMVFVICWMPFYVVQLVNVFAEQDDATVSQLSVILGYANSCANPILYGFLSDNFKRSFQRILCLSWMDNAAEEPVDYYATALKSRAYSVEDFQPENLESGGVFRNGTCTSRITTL
# How it was run: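 Competition binding used 10 μg CHO-K1 SSTR1 membranes and I-125 somatostatin, 0.4 nM in the compound mix before membranes were added. Buffer was 25 mM HEPES pH 7.4, 10 mM MgCl2, 1 mM CaCl2, 0.5% BSA. After 60 min at room temperature, bound tracer was filtered onto PEI-soaked filters and counted by scintillation; values are pIC50.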
# [2] = target: T2, SSTR4 (Homo sapiens, UniProt P31391); assay: Inhibition of forskolin stimulated cAMP in CHO-K1 cells overexpressing SSTR4; format: cell-based; conditions: read-out: SSTR4 Activity pEC50 (converted)
# T2 construct: host or cells: CHO-K1
# T2 sequence (P31391 whole entry): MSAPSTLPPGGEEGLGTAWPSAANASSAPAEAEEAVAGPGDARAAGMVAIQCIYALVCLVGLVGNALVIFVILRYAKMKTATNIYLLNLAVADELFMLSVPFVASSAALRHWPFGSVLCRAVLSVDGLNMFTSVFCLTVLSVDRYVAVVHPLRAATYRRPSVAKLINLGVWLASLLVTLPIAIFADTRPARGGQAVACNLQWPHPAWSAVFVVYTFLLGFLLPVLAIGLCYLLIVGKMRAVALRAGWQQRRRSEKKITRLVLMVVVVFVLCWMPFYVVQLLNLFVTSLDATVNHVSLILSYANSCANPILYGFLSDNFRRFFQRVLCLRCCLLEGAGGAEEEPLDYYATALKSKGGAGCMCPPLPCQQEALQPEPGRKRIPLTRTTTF
# How it was run: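 CHO-K1 cells overexpressing SSTR4 treated 30 min at room temperature with compound in Krebs Ringer buffer containing 0.5% BSA, 300 μM IBMX and 350 nM forskolin. Intracellular cAMP measured by HTRF LANCE Ultra (665/615 nm); pEC50 values reported.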
# [3] = target: T2, SSTR4; assay: SSTR4 I-125 somatostatin competition binding assay (CHO-K1 membranes); conditions: competition with I-125 somatostatin, membranes from CHO-K1 overexpressing SSTR4; read-out: SSTR4 Binding pIC50 (converted)
# How it was run: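 CHO-K1 membranes overexpressing SSTR4 (1 μg/well) were incubated 60 min at room temperature with compound and I-125 somatostatin (0.2 nM in the compound mix) in 25 mM HEPES pH 7.4, 10 mM MgCl2, 1 mM CaCl2, 0.5% BSA. Bound radioligand was collected on PEI-soaked filters and scintillation-counted, with results reported as pIC50.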
IC50 [1],EC50 [2],IC50 [3],Compound
6310 nM,0.794 nM,20 nM,"O=C(CCN1CCC1)N[C@H](c1cccc(Cl)c1)C(F)F [Example 202, (R)-3-(azetidin-1-yl)-N-(1-(3-chlorophenyl)-2,2-difluoroethyl)propanamide]"
3980 nM,3.98 nM,158 nM,"CN1CCCC1CC(=O)NC(C)(C)c1nccc2ccccc12 (stereo not drawn) [Example 203, N-(2-(isoquinolin-1-yl)propan-2-yl)-2-(1-methylpyrrolidin-2-yl)acetamide]"
631 nM,0.1 nM,3.16 nM,"CC[C@@H](CN1CCC1)C(=O)N[C@H](c1ccc(F)cc1)C(F)F [Example 204, (S)-2-(azetidin-1-ylmethyl)-N-((R)-2,2-difluoro-1-(4-fluorophenyl)ethyl)butanamide]"
